Measured values reported in patent US7772269B2, “Pyrazole analogs” (Pfizer Inc., priority 2006, dated 2010).

Key:
[1] = Emesis evaluation in beagle dogs; assay type: in vivo; settings: for emesis / emesis (number of dogs): dogs
Method: Experiments were undertaken to differentiate local gastrointestinal emetic stimuli during dissolution and absorption of an oral compound from emetic stimuli produced during systemic exposure through the bloodstream. […] These findings were observed after 8-12 kg purpose-bred beagle dogs were administered 4-(3-{[4-(1-methyl-1H-pyrazol-5-yl)phenyl]thio}phenyl)tetrahydro-2H-pyran-4-carboxamide by IV infusion, using a loading dose followed by a slow infusion to attain a peak blood level over 30 minutes to 1 hour in duration. More specifically, compounds were diluted in phosphate buffered saline to a concentration where 10 ml/kg total volume was administered through an intravenous catheter using an infusion pump, with approximately 90% of the total dose being delivered in the first 5 minutes, and the remaining dose administered over the next 25 minutes. Similar delivery methods to produce an exposure that approximates the systemic pharmacokinetic profile seen with oral delivery are anticipated to give similar results. More rapid methods of administration and the resultant high plasma concentrations are not anticipated to discriminate useful compounds from non-useful compounds. For example, IV bolus administration may produce a higher peak plasma concentration and systemic gastrointestinal effects than those achieved for compounds that following absorption from the GI tract, would have acceptable peak plasma concentrations and therapeutic efficacy. […] Periodic serum and plasma samples were obtained during the first 6 hours to document systemic inhibition of the 5-lipoxygenase enzyme as well as exposure levels of the compound. […] In one study, 4-(3-(4-(2-methyl-1H-imidazol-1-yl)phenylthio)phenyl)-tetrahydro-2H-pyran-4-carboxamide was administered intravenously at 10 mg/kg, 30 mg/kg and 60 mg/kg as well as 30 mg per kg by the oral route. […] In another experiment, 4-(3-{[4-(1-methyl-1H-pyrazol-5-yl)phenyl]thio}phenyl)tetrahydro-2H-pyran-4-carboxamide was administered orally at doses of 100 mg per kg, 300 mg per kg, and 600 mg per kg, with emesis only observed in 2 dogs at 100 mg per kg and one dog at 300 mg per kg.

[2] = clinical trial; cited from earlier work
5-LO [3] = biological target: T1, 5-LO (Homo sapiens, UniProt P09917); test: Eicosanoid production from human whole blood (HWB/LTB4: ionophore induced LTB4); assay type: cell-based; design: from tissue; host or cells: pooled human whole blood
T1 sequence (P09917 1-674): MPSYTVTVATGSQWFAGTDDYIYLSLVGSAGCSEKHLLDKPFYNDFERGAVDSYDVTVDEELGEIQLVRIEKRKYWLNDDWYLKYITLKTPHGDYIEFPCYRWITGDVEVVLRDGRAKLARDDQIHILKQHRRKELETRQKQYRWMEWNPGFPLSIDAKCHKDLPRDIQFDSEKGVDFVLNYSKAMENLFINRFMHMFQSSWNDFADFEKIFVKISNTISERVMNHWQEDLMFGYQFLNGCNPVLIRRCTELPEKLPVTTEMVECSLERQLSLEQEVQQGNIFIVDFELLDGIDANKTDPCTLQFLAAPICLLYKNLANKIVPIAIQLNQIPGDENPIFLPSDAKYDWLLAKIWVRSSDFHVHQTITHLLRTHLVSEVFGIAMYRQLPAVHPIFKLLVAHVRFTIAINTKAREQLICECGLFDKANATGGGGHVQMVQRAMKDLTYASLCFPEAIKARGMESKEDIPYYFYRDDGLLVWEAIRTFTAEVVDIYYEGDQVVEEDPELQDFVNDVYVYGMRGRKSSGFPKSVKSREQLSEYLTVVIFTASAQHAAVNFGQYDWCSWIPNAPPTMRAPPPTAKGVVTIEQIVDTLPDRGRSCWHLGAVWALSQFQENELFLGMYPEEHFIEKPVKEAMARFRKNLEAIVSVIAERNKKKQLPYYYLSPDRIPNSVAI
Method: Human whole blood was collected from healthy or asthmatic human donors in 10 ml heparinized tubes (Vacutainer tubes; Becton Dickenson, Franklin Lakes, N.J.). Collected blood was pooled and 80 μl was dispensed into each well of 384 well polypropylene plates using a Multi-Drop™ 384-well dispenser (Titertek, Huntsville, Ala.). Varying concentrations of compounds were dissolved in DMSO then 2 μl/well was added to the blood using a PlateMate Plus™ automated pipetting station (Matrix Technologies, Hudson, N.H.). The compounds were preincubated with the blood at room temperature for 10 minutes followed by stimulation with 40 μl calcium ionophore (A23187, Sigma Chemical Co, St. Louis, Mo., Cat. # C-7522) and 30 μl arachidonic acid (S-1133, NU-Chek PREP, Inc., Elysian, MN, Cat. # S-1133) dissolved in 60% ethanol. After 15 min incubation at 37° C. in a shallow water bath, the blood was centrifuged at 800 g for 10 minutes at 4° C., the supernatants collected, and leukotriene and prostaglandin levels measured by ELISA according to the manufacturer's directions (Cayman Chemical Company, Ann Arbor, Mich.). The assay was performed at a final concentration of 2.5% DMSO. Results of this assay are shown as follows:
HWB/LTB4: Ionophore Induced LTB4 from Human Whole Blood

5-LO [4] = biological target: T1, 5-LO; test: Fluorescence Intensity 5-LO Enzyme Assay; assay type: biochemical; settings: recombinant human 5-LO crude lysate, H2DCFDA oxidation, 3 μM arachidonic acid
Method: The enzyme assay is based on the oxidation of the non-fluorescent compound 2′,7′-dichlorodihydrofluorescein diacetate (H2DCFDA) to the fluorescent 2′,7′ dichlorofluorescein by 5-LO in an arachidonic acid-dependent reaction. Ester cleavage of the acetate groups of the substrate H2DCFDA must occur prior to oxidation. This is achieved through use of a crude cell lysate preparation of recombinant human 5-LO. The enzyme assay ([…]) contained 50 mM Tris (pH 7.5), 2 mM CaCl2, 2 mM EDTA, 3 μM arachidonic acid (Nu-Chek Prep; #S-1133), 10 μM ATP, 10 μM H2DCFDA (Invitrogen; #D399), inhibitor (varying concentration) and recombinant human 5-LO enzyme (1.25 μL crude lysate per well).
Inhibitors (dissolved in DMSO) were plated into a 384-well assay plate (Corning #3654) at 1 μL followed by a 20 μL addition of a solution containing 5-LO enzyme and H2DCFDA. Enzyme and H2DCFDA were pre-incubated for 5 minutes to allow time for acetate group cleavage of the dye prior to addition to the assay plate. After a 10 minute preincubation of inhibitor and enzyme/dye mix, the assay was initiated by the addition of a substrate solution containing arachidonic acid and ATP. The enzymatic reaction was run for 20 min at room temperature and terminated by the addition of 40 μL of acetonitrile. Assay plates were read in a plate reader using standard wavelengths for fluorescein. […]

5-LO [5] = biological target: T2, 5-LO (Rattus norvegicus, UniProt P12527); test: Carrageenan-induced eicosanoid production in the rat air pouch; assay type: in vivo; settings: leukotriene levels in rat air pouch fluid, lower % = higher activity
T2 construct: from tissue; host or cells: rat air pouch (Lewis rat, in vivo)
T2 sequence (P12527 1-673): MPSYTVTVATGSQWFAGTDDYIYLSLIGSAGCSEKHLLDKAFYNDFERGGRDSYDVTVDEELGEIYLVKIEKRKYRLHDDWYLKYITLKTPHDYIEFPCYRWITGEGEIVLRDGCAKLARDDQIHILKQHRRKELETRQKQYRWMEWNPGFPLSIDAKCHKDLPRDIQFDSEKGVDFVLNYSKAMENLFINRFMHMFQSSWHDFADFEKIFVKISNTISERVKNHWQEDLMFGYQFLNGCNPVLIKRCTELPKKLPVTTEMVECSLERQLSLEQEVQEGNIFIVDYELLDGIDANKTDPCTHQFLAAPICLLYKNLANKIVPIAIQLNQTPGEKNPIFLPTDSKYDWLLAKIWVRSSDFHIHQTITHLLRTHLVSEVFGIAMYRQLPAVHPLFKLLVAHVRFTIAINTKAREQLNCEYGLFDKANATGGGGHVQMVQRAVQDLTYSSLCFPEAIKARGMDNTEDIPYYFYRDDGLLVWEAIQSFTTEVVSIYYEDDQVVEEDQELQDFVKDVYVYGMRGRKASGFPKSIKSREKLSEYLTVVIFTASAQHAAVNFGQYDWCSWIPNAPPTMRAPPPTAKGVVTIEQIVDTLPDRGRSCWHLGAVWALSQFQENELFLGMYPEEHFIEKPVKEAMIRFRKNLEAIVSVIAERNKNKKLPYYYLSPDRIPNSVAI
Method: For a correct interpretation of the results, it is noted that the lower the % of control, the higher the activity of a test compound. Male Lewis rats (175-200 g), Charles River Laboratories, Wilmington, Mass.) were used in the study. Air pouches were produced by subcutaneous injection of 20 ml of sterile air into the intrascapular area of the back. Pouches were allowed to develop for 1 day. Animals (6 per group) were fasted with free access to water for 16 to 24 hours prior to drug administration. Drugs or vehicle were administered by gavage 1 hour prior to injection of 2 ml of a 1% suspension of carrageenan (FMC BioPolymer, Philadelphia, Pa., Cat. # GP209-NF) dissolved in saline into the pouch. At 3 hours post-carrageenan injection, 1 ml of 50 μg/ml calcium ionophore in saline (A23187, Sigma Chemical Co, St. Louis, M, Cat. #C-7522) was injected into the pouch and the pouch fluid collected 10 minutes later by lavage. The fluid was centrifuged at 3500 rpm for 10 minutes at 4° C., and the supernatants were collected for analysis. Leukotriene levels were quantitated by ELISA according to the manufacturer's directions (Cayman Chemical Company, Ann Arbor, Mich.).

5-lipoxygenase enzyme = test: Systemic inhibition of the 5-lipoxygenase enzyme in dogs (emesis study); assay type: in vivo, beagle dogs; settings: 5 mg/kg IV
Method: Experiments were undertaken to differentiate local gastrointestinal emetic stimuli during dissolution and absorption of an oral compound from emetic stimuli produced during systemic exposure through the bloodstream. […] These findings were observed after 8-12 kg purpose-bred beagle dogs were administered 4-(3-{[4-(1-methyl-1H-pyrazol-5-yl)phenyl]thio}phenyl)tetrahydro-2H-pyran-4-carboxamide by IV infusion, using a loading dose followed by a slow infusion to attain a peak blood level over 30 minutes to 1 hour in duration. More specifically, compounds were diluted in phosphate buffered saline to a concentration where 10 ml/kg total volume was administered through an intravenous catheter using an infusion pump, with approximately 90% of the total dose being delivered in the first 5 minutes, and the remaining dose administered over the next 25 minutes. Similar delivery methods to produce an exposure that approximates the systemic pharmacokinetic profile seen with oral delivery are anticipated to give similar results. More rapid methods of administration and the resultant high plasma concentrations are not anticipated to discriminate useful compounds from non-useful compounds. […]

SMILES	emesis ([1]; intravenously at 10, 30 and 60 mg/kg and 30 mg per kg oral)	nausea or emesis [2]	IC50 (5-LO [3]) [nM]	IC80 (5-LO [3]) [nM]	IC90 (5-LO [3]) [nM]	IC50 (5-LO [4]) [nM]	% of Control (5-LO [5]; dose 1 mg/kg by gavage)	% of Control (5-LO [5]; dose 3 mg/kg by gavage)	% of Control (5-LO [5]; dose 10 mg/kg by gavage)	nausea and emesis ([1]; beagle dogs, IV infusion (loading dose followed by slow infusion))	emesis ([1]; 5 mg/kg IV)	emesis (number of dogs) ([1]; another experiment, oral 100 mg per kg) [dogs]	emesis (number of dogs) ([1]; another experiment, oral 300 mg per kg)	emesis ([1]; another experiment, oral 600 mg per kg)	emesis ([1]; oral route, doses of 10 and 100 mg per kg)	inhibition of the 5-LO enzyme (5-lipoxygenase enzyme) [%]	% of Control (5-LO [5]; dose 3 mg/kg by gavage, 3 mg/kg)	% of Control (5-LO [5]; dose 3 mg/kg by gavage, listed as 4-(3-{[4-(1-methyl-1H-pyrazol-5-yl)phenyl]thio}phenyl)tetrahydro-2H-pyran-4-carb, 3 mg/kg)
Cc1nccn1-c1ccc(Sc2cccc(C3(C(N)=O)CCOCC3)c2)cc1 [4-(3-(4-(2-methyl-1H-imidazol-1-yl)phenylthio)phenyl)-tetrahydro-2H-pyran-4-carboxamide, reference compound]	Emesis was observed in all dogs	30 % of human subjects																
Cn1nccc1-c1ccc(Sc2cccc(C3(C(N)=O)CCOCC3)c2)cc1F [(Ia), 4-(3-{[3-fluoro-4-(1-methyl-1H-pyrazol-5-yl)phenyl]thio}phenyl)tetrahydro-2H-pyran-4-carboxamide]			152	357	1310	204	25.74 % of Control	0 % of Control	0 % of Control									
Cn1nccc1-c1ccc(Sc2cccc(C3(C(N)=O)CCOCC3)c2)cc1 [(Ib), 4-(3-{[4-(1-methyl-1H-pyrazol-5-yl)phenyl]thio}phenyl)tetrahydro-2H-pyran-4-carboxamide]			135	397	716	229	20.24 % of Control		2.30 % of Control	produce nausea and emesis through systemic exposure	no observed emesis	2	one dog	No emesis was observed	emesis in only one dog at 100 mg per kg	100	5.23 % of Control	20 % of Control
